The results in this text go back to patent US6680293B2, “Use of isolated domains of type IV collagen to modify cell and tissue interactions” (Kansas University Medical Center, priority 1994, dated 2004).

One experiment relates to Hydra cell aggregates. The experiment is described as follows: Hydra cell aggregate development / morphogenesis blocking. The class given is cell-based, Hydra vulgarie. The settings on record: 10 μM, Time 0 to 96 hr. On the procedure:
All experiments utilized Hydra vulgarie (previously named Hydra attenuata). Animals were cultured as described previously (Sarras et al., 1991a, supra) and were not fed for 24 hr prior to use.
Hydra cell aggregates were prepared according to Gierer et al., (1972, supra) with modification described by Sans et al., (1993, supra). They were incubated either in microtiter plates (NUNS, Denmark) with one aggregate/well/10 μl incubation solution or in 96-well plates (Falcon) with three to five aggregates/well/50 μl incubation solution. Antibiotics were used throughout all steps of aggregate preparation to assure that the aggregates used in this study were free of any symbionic bacterial populations (Sarra et al., 1993, supra). […] By 24 hr of cell pellet formation, hydra cell aggregates develop septate junctions between epithelial cells (Wood et at., 1980. J. Ultrastruc. Res. 70:104-117). These junctions prevent the introduction of macromolecules from medium into mesoglea. […]
Criteria for morphogenesis was as follows. […] The percentage of aggregates-with head and tentacle structures at 96 hr of development was calculated and data for each group from different experiments were pooled and plotted. […] Using an ANOVA statistical test, a P value <0.05 was taken as the level of significant difference in all groups analyzed. […]

In a further experiment the test system is hydra cells. The experiment is described as follows: Inhibition of DNA synthesis in hydra cell aggregates. Format: cell-based, Hydra vulgarie. The settings on record: 10 μM, Time 0 to 96 hr.

For `NC(=O)NO` [HU, hydroxyurea], the “morphogenesis of hydra cell aggregates” value in the experiment on Hydra cell aggregates is on record as “did not inhibit”. Further, the DNA synthesis result with hydra cells is given as “completely blocked”.
